Source: patent publication US8124361B2, “Methods of screening for sweet taste modulators” (Givaudan SA, priority 2006, dated 2012)

Assays:
[1] = test system: HEK293T/Gα16gust44 cells; test: Fluo-4 calcium assay, negative control cells expressing Gα16gust44 only (mock transfected); type: cell-based, human; details: for Neg. control (mock transfection) AVG: calcium chloride 2 mM, sucralose 0.5 mM, aspartame 0.85 mM, perillartine 50 μM, cinnamonitrile 100 μM, cyclamate 1 mM, NDHC 0.33 mM, six replicates
[2] = biological target: T1, hCaSR (Homo sapiens, UniProt P41180); test: Fluo-4 calcium assay in cells transfected with hCaSR; type: cell-based; details: transient transfection; calcium chloride 2 mM, sucralose 0.5 mM, aspartame 0.85 mM, perillartine 50 μM, cinnamonitrile 100 μM, cyclamate 1 mM, NDHC 0.33 mM; six replicates
T1 construct: full length cDNAs encoding the human CaSR (commercially available from Origene Inc., USA); host or cells: HEK293T cells stably expressing Galpha16gust44
T1 sequence (P41180 20-1078): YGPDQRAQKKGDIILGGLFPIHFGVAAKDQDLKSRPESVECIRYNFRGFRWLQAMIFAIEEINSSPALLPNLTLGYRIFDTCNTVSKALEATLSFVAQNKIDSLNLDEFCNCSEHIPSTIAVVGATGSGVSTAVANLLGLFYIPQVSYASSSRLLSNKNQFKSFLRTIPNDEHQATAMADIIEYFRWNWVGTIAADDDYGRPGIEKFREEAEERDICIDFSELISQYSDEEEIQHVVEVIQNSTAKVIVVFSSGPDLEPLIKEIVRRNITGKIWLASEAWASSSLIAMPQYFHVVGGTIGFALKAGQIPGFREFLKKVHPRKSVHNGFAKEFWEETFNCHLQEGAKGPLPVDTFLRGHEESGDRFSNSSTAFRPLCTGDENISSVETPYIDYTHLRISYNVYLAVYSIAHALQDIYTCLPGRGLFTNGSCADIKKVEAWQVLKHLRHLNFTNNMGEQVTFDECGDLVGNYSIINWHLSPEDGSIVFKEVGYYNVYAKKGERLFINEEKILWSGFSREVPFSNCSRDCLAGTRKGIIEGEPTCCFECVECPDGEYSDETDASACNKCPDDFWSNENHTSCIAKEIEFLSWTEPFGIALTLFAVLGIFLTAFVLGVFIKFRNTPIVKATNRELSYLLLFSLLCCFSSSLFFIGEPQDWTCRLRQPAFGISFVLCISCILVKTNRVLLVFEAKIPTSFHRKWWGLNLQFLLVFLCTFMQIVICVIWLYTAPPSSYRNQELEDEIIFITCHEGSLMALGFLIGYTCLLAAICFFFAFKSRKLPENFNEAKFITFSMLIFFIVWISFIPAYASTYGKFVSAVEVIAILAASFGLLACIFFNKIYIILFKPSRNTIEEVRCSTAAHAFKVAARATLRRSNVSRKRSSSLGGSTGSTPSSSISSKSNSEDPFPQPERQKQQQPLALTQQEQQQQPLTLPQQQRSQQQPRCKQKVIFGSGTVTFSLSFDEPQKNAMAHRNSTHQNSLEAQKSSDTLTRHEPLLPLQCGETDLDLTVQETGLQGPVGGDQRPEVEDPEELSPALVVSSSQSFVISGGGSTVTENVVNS

[3] = biological target: T2, transmembrane domains of TAS1R (Homo sapiens, UniProt Q7RTX0+Q8TE23, C757R); test: Identification of candidate sweetness enhancers that bind to the transmembrane domains; type: binding; details: identified by the applicants as candidate sweetness enhancers
T2 sequence (Q8TE23 20-839): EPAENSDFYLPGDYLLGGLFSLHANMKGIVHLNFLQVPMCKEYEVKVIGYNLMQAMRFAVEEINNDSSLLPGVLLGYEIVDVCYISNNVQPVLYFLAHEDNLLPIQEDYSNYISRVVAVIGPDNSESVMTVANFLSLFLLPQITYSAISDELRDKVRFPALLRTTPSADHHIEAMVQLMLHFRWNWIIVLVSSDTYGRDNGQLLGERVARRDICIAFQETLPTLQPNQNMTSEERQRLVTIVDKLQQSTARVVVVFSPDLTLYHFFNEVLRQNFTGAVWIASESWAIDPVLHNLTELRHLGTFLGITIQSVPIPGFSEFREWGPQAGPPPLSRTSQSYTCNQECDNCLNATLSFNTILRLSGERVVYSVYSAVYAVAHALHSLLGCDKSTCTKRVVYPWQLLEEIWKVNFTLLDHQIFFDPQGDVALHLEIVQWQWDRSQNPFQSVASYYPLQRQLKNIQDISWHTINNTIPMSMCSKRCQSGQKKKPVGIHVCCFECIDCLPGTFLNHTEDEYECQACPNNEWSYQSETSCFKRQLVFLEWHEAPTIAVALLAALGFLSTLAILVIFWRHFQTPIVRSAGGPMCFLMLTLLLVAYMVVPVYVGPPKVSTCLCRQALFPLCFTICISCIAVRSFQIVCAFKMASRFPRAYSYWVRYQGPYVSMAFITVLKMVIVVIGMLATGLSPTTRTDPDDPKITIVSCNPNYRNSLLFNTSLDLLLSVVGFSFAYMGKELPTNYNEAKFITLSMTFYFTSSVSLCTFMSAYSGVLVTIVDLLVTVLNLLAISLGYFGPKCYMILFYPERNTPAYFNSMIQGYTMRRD
T2 sequence (Q7RTX0 21-852 C757R): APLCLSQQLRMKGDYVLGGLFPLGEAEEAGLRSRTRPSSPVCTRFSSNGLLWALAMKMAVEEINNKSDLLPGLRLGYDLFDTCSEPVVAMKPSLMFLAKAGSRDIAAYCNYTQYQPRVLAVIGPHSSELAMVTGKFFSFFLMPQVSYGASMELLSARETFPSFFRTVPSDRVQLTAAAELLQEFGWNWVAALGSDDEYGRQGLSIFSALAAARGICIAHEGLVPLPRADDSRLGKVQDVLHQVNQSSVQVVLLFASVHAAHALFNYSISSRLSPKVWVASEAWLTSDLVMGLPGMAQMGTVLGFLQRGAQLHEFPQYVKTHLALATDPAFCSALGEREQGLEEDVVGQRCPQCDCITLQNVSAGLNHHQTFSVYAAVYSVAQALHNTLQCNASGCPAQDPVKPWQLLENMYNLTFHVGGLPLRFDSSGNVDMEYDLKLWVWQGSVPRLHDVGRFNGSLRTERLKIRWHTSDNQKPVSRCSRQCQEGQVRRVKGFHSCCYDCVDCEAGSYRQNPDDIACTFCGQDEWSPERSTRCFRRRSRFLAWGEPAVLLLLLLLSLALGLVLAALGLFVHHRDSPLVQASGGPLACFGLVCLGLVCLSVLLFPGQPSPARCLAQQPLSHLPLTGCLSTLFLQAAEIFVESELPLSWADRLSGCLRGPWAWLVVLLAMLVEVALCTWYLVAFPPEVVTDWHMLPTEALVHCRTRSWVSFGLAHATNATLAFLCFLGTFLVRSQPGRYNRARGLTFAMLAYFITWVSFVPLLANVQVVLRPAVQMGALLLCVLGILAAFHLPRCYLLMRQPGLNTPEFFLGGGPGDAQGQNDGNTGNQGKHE

[4] = biological target: T3, T1R2-TMD (Homo sapiens, UniProt Q8TE23)
T3 sequence (Q8TE23 564-839): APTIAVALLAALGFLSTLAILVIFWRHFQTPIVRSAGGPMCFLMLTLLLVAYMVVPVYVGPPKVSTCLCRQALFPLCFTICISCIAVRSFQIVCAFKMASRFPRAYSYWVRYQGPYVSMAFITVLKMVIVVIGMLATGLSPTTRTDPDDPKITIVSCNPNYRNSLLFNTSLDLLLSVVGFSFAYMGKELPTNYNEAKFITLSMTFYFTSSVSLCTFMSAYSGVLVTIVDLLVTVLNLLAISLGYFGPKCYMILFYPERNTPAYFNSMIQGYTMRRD

[5] = test system: sweet sensitive panelists; test: Ranking test of sweetness isointensity (R-index), sensory panel; type: in vivo, human
Protocol: (§1) The sensory evaluation was conducted using a ranking method. Samples at ambient temperature were randomly presented in 15 ml blind aliquots (unidentifiable by panelists). Panels consisted of 10 sweet sensitive subjects and samples were presented in 3 replications over 1 session. After tasting each sample, the mouth was rinsed thoroughly with water at ambient temperature prior to tasting the next sample. […] They were asked to rank the samples from low to high with respect to perceived sweet taste.
as §1, with “taste. […] From ranking-style sensory tests, a matrix of responses (see table X below) is constructed such that each cell contains the number of times a given sample was ranked at a particular location.” for “taste.”
Essentially, the R-index is a measure of difference between two samples. The R-index has a chance level of detection of 50%. […] The critical value is the statistically relevant value that the derived R-index must deviate from (i.e greater or less than) in order to be considered significant.

[6] = test system: sweet sensitive panelists; test: Forced choice test of sweetness versus sucrose, sensory panel; type: in vivo, human; details: 1% sucrose, comparison with 60 ppm swingle extract; highest imaginable sweetness rates as 10
Protocol: A forced choice sensory evaluation of […] extract as a sweetener was performed as described in example 13 (see also for forced choice method, O'Mahony, 1992, J. Sens. Stud., 7:1-47), subject to the following modifications: […]

[7] = 0.5% sucrose in 1700 ppm cyclamate vs 1700 ppm cyclamate
[8] = 0.5% sucrose in 1700 ppm cyclamate vs 1900 ppm cyclamate
[9] = 0.5% sucrose in 1700 ppm cyclamate vs 2100 ppm cyclamate
[10] = 0.5% sucrose in 1700 ppm cyclamate vs 2300 ppm cyclamate
[11] = 0.5% sucrose in 1700 ppm cyclamate vs 2500 ppm cyclamate
[12] = 0.5% sucrose in aqueous 600 ppm p-ethoxybenzaldehyde vs 600 ppm p-ethoxybenzaldehyde
[13] = 0.5% sucrose in aqueous 600 ppm p-ethoxybenzaldehyde vs 700 ppm p-ethoxybenzaldehyde

Which “Neg. control (mock transfection) AVG” value [1] does the source give for [Ca+2].[Cl-].[Cl-] [Calcium, calcium chloride] here?
The value was 1570 RFU.

And the “hCaSR AVG” value [2]?
The value was 7610 RFU.

OC[C@H]1O[C@H](O[C@]2(CCl)O[C@H](CCl)[C@@H](O)[C@@H]2O)[C@H](O)[C@@H](O)[C@H]1Cl [Sucralose, 6-dichloro-1,6-dideoxy-β-D-fructo-furanosyl 4-chloro-4-deoxy-α-D-galactopyranoside] was tested. Which “Neg. control (mock transfection) AVG” value [1] did it give?
The value was −186 RFU.

What about the “hCaSR AVG” value [2] of the same compound?
Its value is 22 RFU.

Which “Neg. control (mock transfection) AVG” value [1] does the source give for N#CC=Cc1ccccc1 [cinnamonitrile] here?
Its value is −998 RFU.

What about the “hCaSR AVG” value [2] of the same compound?
Its value is 197 RFU.

What about the “binding to the transmembrane domains of TAS1R” value [3] of the same compound?
Its value is “bind to the transmembrane domains of TAS1R”.

With C=C(C)[C@@H]1CC=C(/C=N/O)CC1 [perillartine] as the compound, how does the “AVERAGE fluorescence increase, Gα16gust44 ONLY (neg. control)” value ([1]; 50 μM perillartine) read?
Its value is 73.78 RFU.

What about the “Neg. control (mock transfection) AVG” value [1] of the same compound?
Its value is −379 RFU.

What about the “hCaSR AVG” value [2] of the same compound?
The value was 73 RFU.

And the “binding to the transmembrane domains of TAS1R” value [3]?
The value was “bind to the transmembrane domains of TAS1R”.

What about the “AVERAGE fluorescence increase, T1R2-TMD/Gα16gust44” value ([4]; 50 μM perillartine) of the same compound?
Its value is 973.06 RFU.

What about the “increase in fluorescence compared to the signal of the negative control” value ([4]; perillartine, many cell clones, vs cells expressing Gα16gust44 but not T1R2-TMD) of the same compound?
The value was “greater than 10 times”.

How did the “cyclamate equivalent in sweetness added” value ([5]; 0.5% sucrose in 1700 ppm cyclamate) turn out when OC[C@H]1O[C@@](CO)(O[C@H]2O[C@H](CO)[C@@H](O)[C@H](O)[C@H]2O)[C@@H](O)[C@@H]1O [sucrose, α-D-glucopyranosyl-(1→2)-β-D-fructofaranose] was run?
Its value is 200 ppm cyclamate.

What about the R-index [5, 7] of the same compound?
Its R-index is 85%.

And the sucrose sample sweetness [5, 7]?
The sucrose sample sweetness was “sweeter”.

What about the R-index [5, 8] of the same compound?
The R-index was 60%.

And the sucrose sample sweetness [5, 8]?
The sucrose sample sweetness was “isosweet”.

And the R-index [5, 9]?
The R-index was 21%.

What about the sucrose sample sweetness [5, 9] of the same compound?
The sucrose sample sweetness was “less sweet”.

What about the R-index [5, 10] of the same compound?
Its R-index is 7%.

And the sucrose sample sweetness [5, 10]?
The sucrose sample sweetness was “less sweet”.

What about the R-index [5, 11] of the same compound?
The R-index was 4%.

What about the sucrose sample sweetness [5, 11] of the same compound?
Its sucrose sample sweetness is “less sweet”.

And the p-ethoxybenzaldehyde isointensity ([5]; 0.5% sucrose in aqueous 600 ppm p-ethoxybenzaldehyde)?
Its p-ethoxybenzaldehyde isointensity is 700 ppm p-ethoxybenzaldehyde.

And the R-index [5, 12]?
The R-index was 68%.

And the mixture sample sweetness [5, 12]?
Its mixture sample sweetness is “sweeter”.

What about the R-index [5, 13] of the same compound?
The R-index was 59%.

And the mixture sample sweetness [5, 13]?
The mixture sample sweetness was “isosweet”.

And the cyclamate isointensity ([5]; 1700 ppm cyclamate+0.5% sucrose)?
Its cyclamate isointensity is 1900 ppm cyclamate.

What about the sweetness intensity rating [6] of the same compound?
The sweetness intensity rating was 0.72.
